Data taken from patent publication US8912144B2, “Method for treating stroke via administration of NEP1-40 and inosine” (Children's Medical Center Corporation, priority 2003, dated 2014).

System: corticospinal neurons (CSNs/CSMNs)
Assay: Laser-capture microdissection and Illumina microarray gene expression in corticospinal neurons contralateral to stroke
Assay type: in vivo, rat
Experimental: In a separate group of animals (n=20), layer V pyramidal cells of the sensorimotor cortex were retrogradely labeled by injecting Alexa-Fluor-488-conjugated cholera toxin B subunit (CTB; 300 U/μl in sterile saline) into the cervical spinal cord. For this, animals were anesthetized with a combination of ketamine and Domitor (medetomidine) and a laminectomy was performed at the cervical level of the spinal cord (C2-C4). CTB was stereotaxically delivered into four sites lateral to the corticospinal tract. Injections (1.3 μl) were spaced 1 mm apart on the rostro-caudal axis, and were made 0.5 mm to the left and right of the midline. After allowing two weeks for transport of the tracer, we performed either sham surgery with no treatment (n=6) or stroke surgery combined with saline (n=3) or inosine (n=4) treatment as described above. Seven days later, animals were decapitated under transient gas anesthesia, brains were removed and rinsed in cold RPMI medium, and a tissue block containing the sensorimotor cortex was dissected and placed in OCT Tissue Tek Medium (Sakura Finetek USA Inc., CA) on dry ice within five minutes of death. Ten μm sections were cut onto precleaned Gold Seal RITE-ON glass slides (Gold Seal Prod-ucts, Portsmouth, N.H.), placed on dry ice, and rapidly stored at −80° C.
Slide-mounted sections were thawed and dehydrated in RNAse-free ethanol gradients and xylene. Retro-gradely labeled, fluorescent cortical pyramidal cells in the undamaged hemisphere were individually captured using the Arcturus VERITAS system. ≧500 cells were collected from each animal and stored in Arcturus extraction buffer at −80° C. Total RNA was extracted from cells using the Micro-to-Midi TotalRNA Purification System (Invitrogen, Carlsbad Calif.) and double-amplified using the TargetAmp 2-Round Aminoallyl-aRNA Amplification kit 1.0 (Epicentre, Madison, Wis.). Amplified RNA was checked for average fragment length using the Agilent RNA 6000 Nano LabChip kit (Agilent Technologies, Santa Clara, Calif.) and then biotinylated and hybridized (1 μg) on Illumina RatRef-12 Expression BeadChip arrays (Illumina, San Diego Calif.), querying the expression of >22,000 RefSeq-curated rat transcripts. Results were obtained from a total of 15 samples representing 6 untreated controls, 4 animals with stroke treated with saline and 5 animals with stroke treated with inosine. Slides were processed and scanned with Illumina BeadStation platform according to the manufacturer protocol.
Raw data was analyzed using Bioconductor packages (www.bioconductor.org, (Gentleman et al., 2004)). Low level quality-control analysis was performed using inter-array Pearson correlation and clustering based on variance. Two arrays (1 saline and 1 inosine-treated) were outliers and were excluded from the analysis. Data was normalized using quantile normalization, and analysis of differential expression was performed using a linear model fitting (LIMMA package, (Smyth, 2005). Differentially expressed genes were classified according to gene ontology using Bioconductor packages and online tools (DAVID, http://david.abcc.ncifcrf.gov/). Pathway analysis was carried out using Ingenuity Pathway Analysis (Ingenuity Systems, www.ingenuity.com).

[1] = ILMN_161110, similar to myo-inositol 1-phosphate synthase A1

## OC[C@H]1O[C@@H](n2cnc3c(O)ncnc32)[C@H](O)[C@@H]1O [inosine]
ILMN_70426
  Fold-Induction Stroke, ino vs. cntrl, Rpl31: 0.90
ILMN_70426, inosine after stroke
  Signal Intensity, Rpl31: 831
[1]
  Fold-Induction Stroke, ino vs. cntrl: 2.90
  Signal Intensity Inosine: 3241
Ifitm3 ILMN_48088
  Fold-Induction Stroke, ino vs. cntrl: 2.71
  Signal Intensity Inosine: 2516
Igfbp2 ILMN_54332
  Fold-Induction Stroke, ino vs. cntrl: 3.97
  Signal Intensity Inosine: 3801
Ing4 ILMN_54994
  Fold-Induction Stroke, ino vs. cntrl: 1.01
  Signal Intensity Inosine: 1169
Irf3 ILMN_51700
  Fold-Induction Stroke, ino vs. cntrl: 2.92
  Signal Intensity Inosine: 12720
LOC291847 ILMN_62527
  Fold-Induction Stroke, ino vs. cntrl: 1.32
  Signal Intensity Inosine: 558
LOC294337 ILMN_68161
  Fold-Induction Stroke, ino vs. cntrl: 2.56
  Signal Intensity Inosine: 2622
LOC295941 ILMN_58921
  Fold-Induction Stroke, ino vs. cntrl: 1.07
  Signal Intensity Inosine: 3970
LOC300149 ILMN_48288
  Fold-Induction Stroke, ino vs. cntrl: 1.34
  Signal Intensity Inosine: 2789
LOC301122 ILMN_62401
  Fold-Induction Stroke, ino vs. cntrl: 1.22
  Signal Intensity Inosine: 925
LOC303702 ILMN_64738
  Fold-Induction Stroke, ino vs. cntrl: 1.72
  Signal Intensity Inosine: 899
LOC303790 ILMN_56510
  Fold-Induction Stroke, ino vs. cntrl: 1.45
  Signal Intensity Inosine: 2300
LOC304116 ILMN_63846
  Fold-Induction Stroke, ino vs. cntrl: 0.99
  Signal Intensity Inosine: 393
LOC305076 ILMN_60367
  Fold-Induction Stroke, ino vs. cntrl: 1.56
  Signal Intensity Inosine: 824
LOC305633 ILMN_51277
  Fold-Induction Stroke, ino vs. cntrl: 2.99
  Signal Intensity Inosine: 2047
LOC317579 ILMN_58258
  Fold-Induction Stroke, ino vs. cntrl: 1.52
  Signal Intensity Inosine: 733
LOC360627 ILMN_61895
  Fold-Induction Stroke, ino vs. cntrl: 2.62
  Signal Intensity Inosine: 1064
LOC360644 ILMN_48641
  Fold-Induction Stroke, ino vs. cntrl: 3.68
  Signal Intensity Inosine: 602
LOC361080 ILMN_61547
  Fold-Induction Stroke, ino vs. cntrl: 0.40
  Signal Intensity Inosine: 295
LOC362015 ILMN_62932
  Fold-Induction Stroke, ino vs. cntrl: 1.37
  Signal Intensity Inosine: 1285
LOC362304 ILMN_53204
  Fold-Induction Stroke, ino vs. cntrl: 1.34
  Signal Intensity Inosine: 5067
LOC362857 ILMN_64100
  Fold-Induction Stroke, ino vs. cntrl: 0.43
  Signal Intensity Inosine: 1081
LOC497739 ILMN_66205
  Fold-Induction Stroke, ino vs. cntrl: 1.65
  Signal Intensity Inosine: 4864
LOC497841 ILMN_51249
  Fold-Induction Stroke, ino vs. cntrl: 11.52
  Signal Intensity Inosine: 2841
LOC498185 ILMN_58236
  Fold-Induction Stroke, ino vs. cntrl: 2.76
  Signal Intensity Inosine: 804
LOC498276 ILMN_65617
  Fold-Induction Stroke, ino vs. cntrl: 2.56
  Signal Intensity Inosine: 3014
LOC498279 ILMN_65961
  Fold-Induction Stroke, ino vs. cntrl: 4.07
  Signal Intensity Inosine: 8892
LOC498335 ILMN_53325
  Fold-Induction Stroke, ino vs. cntrl: 25.26
  Signal Intensity Inosine: 3310
LOC498614 ILMN_54303
  Fold-Induction Stroke, ino vs. cntrl: 1.05
  Signal Intensity Inosine: 2373
LOC498957 ILMN_67281
  Fold-Induction Stroke, ino vs. cntrl: 1.28
  Signal Intensity Inosine: 1081
LOC499244 ILMN_49099
  Fold-Induction Stroke, ino vs. cntrl: 2.24
  Signal Intensity Inosine: 14824
LOC500226 ILMN_54711
  Fold-Induction Stroke, ino vs. cntrl: 2.10
  Signal Intensity Inosine: 7922
LOC500804 ILMN_61346
  Fold-Induction Stroke, ino vs. cntrl: 2.35
  Signal Intensity Inosine: 5507
Lap3 ILMN_57870
  Fold-Induction Stroke, ino vs. cntrl: 1.01
  Signal Intensity Inosine: 918
Lcpl ILMN_58058
  Fold-Induction Stroke, ino vs. cntrl: 2.76
  Signal Intensity Inosine: 1306
Lgals3bp ILMN_60037
  Fold-Induction Stroke, ino vs. cntrl: 3.00
